Results reported in patent publication US20080234229A1, “Novel Therapeutic Agents for the Treatment of Cancer, Metabolic Diseases and Skin Disorders” (AUSPEX PHARMACEUTICALS, INC., priority 2005, published 2008).

Columns and labels:
A375 cells = test: A375 Tumor Cell Proliferation Assay (Alamar Blue); format: cell-based, human; details: for growth inhibitory effect compared to Targretin: FIG. 1; for TGI (Total Growth Inhibition) / IC50: A375 cells, 72 to 168 hours, reference data; for IC50: A-375, read-out: IC50 (50% Inhibitory Concentration)
Protocol: A375 cells (5,000 per well in 90% RPMI-1640 plus 10% Fetal Bovine Serum [FBS]) were pre-incubated in a black clear bottom 96-well plate in an atmosphere of 5% CO2 at 37° C. for 24 hours. Stock solutions of compounds in DMSO were diluted using a buffer and dilutions were added to each well. […] The final assay pH was 7.4. The cells were incubated in RPMI-1640 with each compound for an additional 72 to 168 hours. Alamar Blue was added and the plate was incubated for an additional 12 hours. Fluorescence intensity was measured using a Gemini plate reader with excitation at 530 nm and emission at 590 nm. A decrease of 50 percent or more (≧50%) in fluorescence intensity relative to vehicle treated controls is an indication of significant anti-cancer activity.
TGI (Total Growth Inhibition): Test compound concentration where the increase in number or mass of cells after 72 to 168 hours is reduced to equal that at time t=0.

SW-480 cells = test: SW-480 Tumor Cell Proliferation Assay (Alamar Blue); format: cell-based; details: human SW480 carcinoma cells; for growth inhibitory effect compared to Targretin: FIG. 3; for growth inhibitory effect in the presence of Irinotican: varying concentrations, combination with Irinotican, FIG. 6 and 7
Protocol: SW-480 cells (4×10^3/well in 90% EMEM medium plus 2 mM glutamine, 1 mM pyruvate, 0.1 mM non-essential amino acids and 10% Fetal Bovine Serum [FBS]), are pre-incubated in 96-well plates in an atmosphere of 5% CO2 at 37° C. for 24 hours. Test compounds and/or vehicle is then added to each well with a final concentration of 0.5% DMSO, pH 7.4 in EMEM for an additional 72 hours. After a further 6-hour incubation in the presence of Alamar Blue, fluorescence intensity is measured using a Gemini plate reader with excitation at 530 nm and emission at 590 nm.

SKMES cells = test: SKMES Tumor Cell Proliferation Assay (Alamar Blue); format: cell-based; details: human SKMES carcinoma cells; for growth inhibitory effect compared to Targretin: FIG. 2
Protocol: SKMES cells (8×10^3/well in 90% RPMI-1640 medium plus 2 mM glutamine, 10 mM HEPES and 10% Fetal Bovine Serum [FBS]), are pre-incubated in 96-well plates in an atmosphere of 5% CO2 at 37° C. for 24 hours. Test compounds and/or vehicle is then added to each well with a final concentration of 0.5% DMSO, pH 7.4 in RPMI-1640 for an additional 72 hours. After a further 150 minutes incubation in the presence of Alamar Blue, fluorescence intensity is measured using a Gemini plate reader with excitation at 530 nm and emission at […].

SMILES	growth inhibitory effect compared to Targretin (A375 cells; human A375 carcinoma cells)	growth inhibitory effect compared to Targretin (SW-480 cells)	growth inhibitory effect in the presence of Irinotican (SW-480 cells)	growth inhibitory effect compared to Targretin (SKMES cells)	growth inhibitory effect in the presence of Taxol (A375 cells; human A375 carcinoma cells, varying concentrations, combination with Taxol, FIG. 5)	growth inhibitory effect in the presence of Taxol (SKMES cells; varying concentrations, combination with Taxol, FIG. 4)	TGI (Total Growth Inhibition) (A375 cells)	IC50 (A375 cells; Homo sapiens)	CC50 (A375 cells; Homo sapiens, A-375, read-out: LC50 (50% Lethal Concentration))
C=C(c1ccc(B2OC(C)(C)C(C)(C)O2)cc1)c1cc2c(cc1C)C(C)(C)CCC2(C)C [Example 4, 4,4,5,5-Tetramethyl-2-{4-[1-(3,5,5,8,8-pentamethyl-5,6,7,8-tetrahydro-naphthalen-2-yl)-vinyl]-phenyl}-[1,3,2]dioxaborolane]	enhanced activity	enhanced activity	synergism	enhanced activity					
C=C(c1ccc(B(O)O)cc1)c1cc2c(cc1C)C(C)(C)CCC2(C)C [Example 5, 4-[1-(3,5,5,8,8-Pentamethyl-5,6,7,8-tetrahydro-naphthalen-2-yl)-vinyl]-phenylboronic acid]	enhanced activity	enhanced activity	synergism	enhanced activity	synergism	synergism			
COc1cccc2c1C(=O)c1c(O)c3c(c(O)c1C2=O)C[C@@](O)(C(=O)CO)C[C@@H]3O[C@H]1C[C@H](N)[C@H](O)[C@H](C)O1 [Doxorubicin]							0.3 µM	0.19 µM	8 µM
CO[C@@]12[C@H](COC(N)=O)C3=C(C(=O)C(C)=C(N)C3=O)N1C[C@@H]1N[C@@H]12 [Mitomycin]							8 µM	4.2 µM	
